pIC50: −log10 of the molar value.
How the values were obtained:
[1] = molecular target: IRAK4 protein in THP-1 cells (Homo sapiens (Human), UniProt Q9NWZ3); test: Degradation of IRAK4 in THP-1 cells, human IRAK4 AlphaLISA assay; format: cell-based; settings: 24 h incubation
Procedure: THP-1 cells (Stem Cell Bank, Chinese Academy of Sciences) were inoculated onto a 24-well cell culture plate at 0.95 mL/well, with a cell density of 5×10^5 cells/well. The cell plate was incubated overnight in a 37° C., 5% carbon dioxide incubator, and 50 μL of a solution of a compound in dimethyl sulfoxide was added, such that the final concentration of the compound fell within the range of 0.03-3000 nM. After another 24 h of incubation, cells were collected into 1.5 mL centrifuge tubes and centrifuged at 1000 rpm at 4° C. for 5 min. The cell pellets were washed twice with 1×DPBS. The resuspended cells were lysed with 200 μL of lysis buffer (Western and IP cell lysis buffer (Beyotime), supplemented with 1 mM phenylmethylsulfonyl fluoride and protease inhibitor cocktail (Beyotime)), left to stand on ice for 30 mini, and then centrifuged at 14,000 g at 4° C. for 10 min. The supernatant samples were assayed by Western Blot for IRAK4 protein levels.
The above cell lysates were also tested for IRAK4 degradation using a human IRAK4 AlphaLISA assay kit (PerkinElmer, AL3117C). The method is specifically as follows: 2-μL test samples of cell lysate supernatant were transferred to a white 384-well plate (PerkinElmer, 6007299), and 4 μL of 5× anti-IRAK4 receptor beads (PerkinElmer, final concentration of 10 μg/mL) was then added. The plate was incubated at 23° C. for 30 min. Then 4 μL of 5× biotin-labeled anti-IRAK4 antibody (PerkinElmer, final concentration of 1 nM) was added, and the plate was incubated at 23° C. for 60 min. Finally, 10 μL of 2′ streptavidin-labeled donor beads (final concentration of 40 μg/mL) was added to each well, and the plate was incubated in the dark at 23° C. for 30 min. After the incubation was complete, AlphaLISA signal values were measured on a microplate reader EnVision (PerkinElmer, 2105) in the AlphaScreen standard mode, and IRAK4 concentrations were calculated from these signal values. Then a non-linear curve fitting of logarithmic concentration-inhibition rate was performed using GraphPad Prism 7, and the DC50 and Dmax values of the compound were obtained.

IRAK4 kinase = IRAK4 kinase (Homo sapiens (Human), UniProt Q9NWZ3); test: IRAK4 kinase activity test (KinEASE-STK S1 HTRF kit); format: biochemical; settings: 2.5 nM IRAK4 kinase, 7 μM ATP, 37° C. 120 min
Procedure: Then 2.5 nM 1RAK4 kinase (Carna), 1 μM biotinylated polypeptide substrate (Cisbio) and 7 μM adenosine triphosphate (Sigma-Aldrich) were sequentially added, and the mixtures were incubated at 37° C. for 120 min. Subsequently, an anti-phosphoserine/threonine antibody (Cisbio) conjugated with a europium element compound and conjugated modified XL665 streptavidin (Cisbio) were added to the reaction systems to stop the reactions. After 1 h of incubation at room temperature, the fluorescence intensity of each well was measured at the excitation wavelength of 337 nm and the emission wavelengths of 620 nm and 665 nm with a microplate reader EnVision (PerkinElmer) in the HTRF mode, and Ratio values were calculated using the formula Ratio=(665 nm/620 nm)×[…]. The inhibition rate of the compound at each concentration was calculated by comparing the fluorescence intensity ratio with that of the control group. Then a non-linear curve fitting of logarithmic concentration-inhibition rate was performed using GraphPad Prism 7, and the IC50 value of the compound was obtained.

IRAK4 kinase, sequence (Q9NWZ3 whole entry): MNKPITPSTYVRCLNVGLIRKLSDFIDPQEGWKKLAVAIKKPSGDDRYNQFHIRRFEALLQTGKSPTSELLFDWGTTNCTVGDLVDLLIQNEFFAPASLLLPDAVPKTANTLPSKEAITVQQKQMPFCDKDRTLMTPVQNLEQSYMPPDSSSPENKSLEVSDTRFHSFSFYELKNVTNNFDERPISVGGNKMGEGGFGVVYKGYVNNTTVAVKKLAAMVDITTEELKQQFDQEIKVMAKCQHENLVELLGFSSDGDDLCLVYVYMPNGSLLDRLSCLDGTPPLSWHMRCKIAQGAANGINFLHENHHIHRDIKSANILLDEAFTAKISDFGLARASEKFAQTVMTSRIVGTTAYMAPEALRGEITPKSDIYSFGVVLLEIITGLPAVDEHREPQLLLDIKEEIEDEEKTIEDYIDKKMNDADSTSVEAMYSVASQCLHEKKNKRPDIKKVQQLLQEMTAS
IRAK4 protein in THP-1 cells, sequence (Q9NWZ3 whole entry): as above

SMILES | DC50 [1] | Dmax [1] | pIC50 (IRAK4 kinase)
O=C1CCN(c2cc(C(=O)N3CCC4(CCC(CN5CCC(n6cc(NC(=O)c7cnn8ccc(N9CCOCC9)nc78)c(C(F)F)n6)CC5)CC4)CC3)ccc2Cl)C(=O)N1 [Example 15, N-(1-(1-((3-(4-chloro-3-(2,4-dioxotetrahydropyrimidin-1(2H)-yl)benzoyl)-3-azaspiro[5.5]undecan-9-yl)methyl)piperidin-4-yl)-3-(difluoromethyl)-1H-pyrazol-4-yl)-5-morpholinopyrazolo[1,5-a]pyrimidine-3-carboxamide] | 2.5 nM | 92.1% | 7.85
CN(CC1CCN(C(=O)c2ccc(Cl)c(N3CCC(=O)NC3=O)c2)CC1)C[C@H]1CC[C@H](n2cc(NC(=O)c3cnn4ccc(N5C[C@H]6C[C@@H]5CO6)nc34)c(C(F)F)n2)CC1 [Example 4, 5-((1R,4R)-2-oxa-5-azabicyclo[2.2.1]heptan-5-yl)-N-(1-((1R,4R)-4-((((1-(4-chloro-3-(2,4-dioxotetrahydropyrimidin-1(2H)-yl)benzoyl)piperidin-4-yl)methyl)(methyl)amino)methyl)cyclohexyl)-3-(difluoromethyl)-1H-pyrazol-4-yl)pyrazolo[1,5-a]pyrimidine-3-carboxamide] |  |  | 7.43
O=C1CCN(c2cc(C(=O)N3CCN(C[C@H]4CC[C@H](n5cc(NC(=O)c6cnn7ccc(N8C[C@H]9C[C@@H]8CO9)nc67)c(C(F)F)n5)CC4)CC3)ccc2Cl)C(=O)N1 [Example 3, 5-((1R,4R)-2-oxa-5-azabicyclo[2.2.1]heptan-5-yl)-N-(1-((1R,4R)-4-((4-(4-chloro-3-(2,4-dioxotetrahydropyrimidin-1(2H)-yl)benzoyl)piperazin-1-yl)methyl)cyclohexyl)-3-(difluoromethyl)-1H-pyrazol-4-yl)pyrazolo[1,5-a]pyrimidine-3-carboxamide] |  |  | 7.17
COc1cc2nn([C@H]3CC[C@](O)(COCCC4CCN(C(=O)c5ccc(Cl)c(N6CCC(=O)NC6=O)c5)CC4)CC3)cc2cc1NC(=O)c1cccc(C(F)(F)F)n1 [Example 10] | 2.8 nM | 99.3% | 
O=C1CCN(c2cc(C(=O)N3CCC(CCCN4CCC(n5cc(NC(=O)c6cnn7ccc(N8C[C@H]9C[C@@H]8CO9)nc67)c(C(F)F)n5)CC4)CC3)ccc2Cl)C(=O)N1 [Example 14, 5-((1R,4R)-2-oxa-5-azabicyclo[2.2.1]heptan-5-yl)-N-(1-(1-(3-(1-(4-chloro-3-(2,4-dioxotetrahydropyrimidin-1(2H)-yl)benzoyl)piperidin-4-yl)propyl)piperidin-4-yl)-3-(difluoromethyl)-1H-pyrazol-4-yl)pyrazolo[1,5-a]pyrimidine-3-carboxamide] |  |  | 6.91
O=C1CCN(c2cc(C(=O)N3CCC4(CCN(CC5CCN(c6ccc(NC(=O)c7cnn8ccc(N9C[C@H]%10C[C@@H]9CO%10)nc78)c(Cl)c6)CC5)CC4)CC3)ccc2Cl)C(=O)N1 [Example 6, 5-((1R,4R)-2-oxa-5-azabicyclo[2.2.1]heptan-5-yl)-N-(2-chloro-4-(4-((9-(4-chloro-3-(2,4-dioxotetrahydropyrimidin-1(2H)-yl)benzoyl)-3,9-diazaspiro[5.5]undecan-3-yl)methyl)piperidin-1-yl)phenyl)pyrazolo[1,5-a]pyrimidine-3-carboxamide] |  |  | 6.28
O=C1CCN(c2cc(C(=O)N3CCC(C#CCN4CCC(n5cc(NC(=O)c6cnn7ccc(N8C[C@H]9C[C@@H]8CO9)nc67)c(C(F)F)n5)CC4)CC3)ccc2Cl)C(=O)N1 [Example 12, 5-((1R,4R)-2-oxa-5-azabicyclo[2.2.1]heptan-5-yl)-N-(1-(1-(3-(1-(4-chloro-3-(2,4-dioxotetrahydropyrimidin-1(2H)-yl)benzoyl)piperidin-4-yl)prop-2-yn-1-yl)piperidin-4-yl)-3-(difluoromethyl)-1H-pyrazol-4-yl)pyrazolo[1,5-a]pyrimidine-3-carboxamide] |  |  | 6.57

Now from value to molecule:

DC50 [1] | Dmax [1] | pIC50 (IRAK4 kinase) | SMILES
32.8 nM | 79.2% | 7.46 | O=C1CCN(c2cc(C(=O)N3CCN(CCCCN4CCC(n5cc(NC(=O)c6cnn7ccc(N8C[C@H]9C[C@@H]8CO9)nc67)c(C(F)F)n5)CC4)CC3)ccc2Cl)C(=O)N1 [Example 40, 5-((1R,4R)-2-oxa-5-azabicyclo[2.2.1]heptan-5-yl)-N-(1-(1-(4-(4-(4-chloro-3-(2,4-dioxotetrahydropyrimidin-1(2H)-yl)benzoyl)piperazin-1-yl)-n-butyl)piperidin-4-yl)-3-(difluoromethyl)-1H-pyrazol-4-yl)pyrazolo[1,5-a]pyrimidine-3-carboxamide]
 |  | 7.87 | O=C1CCN(c2ccc(C(=O)N3CCC4(CCC(CN5CCC(n6cc(NC(=O)c7cnn8ccc(N9CCOCC9)nc78)c(C(F)F)n6)CC5)CC4)CC3)cc2)C(=O)N1 [Example 27, N-(3-(difluoromethyl)-1-(1-((3-(4-(2,4-dioxotetrahydropyrimidin-1(2H)-yl)benzoyl)-3-azaspiro[5.5]undecan-9-yl)methyl)piperidin-4-yl)-1H-pyrazol-4-yl)-5-morpholinopyrazolo[1,5-a]pyrimidine-3-carboxamide]
3.45 nM | 96% |  | COc1ccc(C(=O)N2CCC(CCN(C)C[C@H]3CC[C@H](n4cc(NC(=O)c5cnn6ccc(N7CCC[C@H](N)C7)nc56)c(C(F)F)n4)CC3)CC2)cc1N1CCC(=O)NC1=O [Example 36, 5-((S)-3-aminopiperidin-1-yl)-N-(3-(difluoromethyl)-1-((1R,4S)-4-(((2-(1-(3-(2,4-dioxotetrahydropyrimidin-1(2H)-yl)-4-methoxybenzoyl)piperidin-4-yl)ethyl)(methyl)amino)methyl)cyclohexyl)-1H-pyrazol-4-yl)pyrazolo[1,5-a]pyrimidine-3-carboxamide]
 |  | 7.57 | O=C1CCN(c2cc(N3CCN(CCCCN4CCC(n5cc(NC(=O)c6cnn7ccc(N8C[C@H]9C[C@@H]8CO9)nc67)c(C(F)F)n5)CC4)CC3)ccc2Cl)C(=O)N1 [Example 51, 5-((1R,4R)-2-oxa-5-azabicyclo[2.2.1]heptan-5-yl)-N-(1-(1-(4-(4-(4-chloro-3-(2,4-dioxotetrahydropyrimidin-1(2H)-yl)phenyl)piperazin-1-yl)butyl)piperidin-4-yl)-3-(difluoromethyl)-1H-pyrazol-4-yl)pyrazolo[1,5-a]pyrimidine-3-carboxamide]
10.9 nM | 93.9% |  | COc1ccc(C(=O)N2CCC(CCN(C)C[C@H]3CC[C@H](n4cc(NC(=O)c5cnn6ccc(N7CC8(COC8)C7)nc56)c(C(F)F)n4)CC3)CC2)cc1N1CCC(=O)NC1=O [Example 39, N-(3-(difluoromethyl)-1-((1R,4R)-4-(((2-(1-(3-(2,4-dioxotetrahydropyrimidin-1(2H)-yl)-4-methoxybenzoyl)piperidin-4-yl)ethyl)(methyl)amino)methyl)cyclohexyl)-1H-pyrazol-4-yl)-5-(2-oxa-6-azaspiro[3.3]heptan-6-yl)pyrazolo[1,5-a]pyrimidine-3-carboxamide]
14.3 nM | 87.2% |  | CN(CCC1CCN(C(=O)c2ccc(Cl)c(N3CCC(=O)NC3=O)c2)CC1)C[C@]1(O)CC[C@@H](n2cc(NC(=O)c3cnn4ccc(N5C[C@H]6C[C@@H]5CO6)nc34)c(C(F)F)n2)CC1 [Example 65, 5-((1R,4R)-2-oxa-5-azabicyclo[2.2.1]heptan-5-yl)-N-(1-((1S,4S)-4-(((2-(1-(4-chloro-3-(2,4-dioxotetrahydropyrimidin-1(2H)-yl)benzoyl)piperidin-4-yl)ethyl)(methyl)amino)methyl)-4-hydroxycyclohexyl)-3-(difluoromethyl)-1H-pyrazol-4-yl)pyrazolo[1,5-a]pyrimidine-3-carboxamide]
 |  | 7.54 | O=C1CCC(c2cc(C(=O)N3CCN(CCCC(=O)N4CCC(n5cc(NC(=O)c6cnn7ccc(N8CCOCC8)nc67)c(C(F)F)n5)CC4)CC3)ccc2F)C(=O)N1 (stereo not shown) [Example 62, N-(3-(difluoromethyl)-1-(1-(4-(4-(3-(2,6-dioxopiperidin-3-yl)-4-fluorobenzoyl)piperazin-1-yl)butanoyl)piperidin-4-yl)-1H-pyrazol-4-yl)-5-morpholinopyrazolo[1,5-a]pyrimidine-3-carboxamide]

From US20240368194A1, “IRAK4 DEGRADATION AGENT, AND PREPARATION METHOD THEREFOR AND USE THEREOF” (SHANGHAI LEADINGTAC PHARMACEUTICAL CO. LTD., priority 2021, published 2024)
